Laboratory results as given in publication PMC6017025, “Pharmacokinetics of Schizandrin and Its Pharmaceutical Products Assessed Using a Validated LC–MS/MS Method” (Molecules : A Journal of Synthetic Chemistry and Natural …, 2018).
Like-named read-outs stand apart in the source and are kept apart here.

Assays:
[1] = Pharmacokinetics of schizandrin in plasma of freely moving rats after i.v./oral schizandrin or oral S. chinensis product (LC-MS/MS, noncompartmental analysis); type: in vivo, rat
Protocol: All experimental protocols involving animals were reviewed and approved by the Institutional Animal Care and Use Committee (IACUC number: 1060813) of National Yang-Ming University. Male Sprague-Dawley rats were obtained from the Laboratory Animal Center of the National Yang-Ming University, Taipei, Taiwan. The animals had free access to food (laboratory rodent diet 5P14, PMI Feeds, Richmond, IN) and water. Six Sprague-Dawley rats (220–240 g) were anesthetized with pentobarbital (50 mg/kg, i.p.) for cannulation. Surgical sites were shaved and disinfected with 70% ethanol solution, and a polyethylene tube (PE50) was implanted into the right jugular vein for collecting blood samples. The cannula were exteriorized and fixed in the dorsal region of the neck. Patency of the tube was maintained by flushing with heparinized saline (20 IU/mL). Rats were allowed to recover 24 h prior to drug administration. Schizandrin was dissolved in 10%DMSO and triply deionized water and administered by gastric gavage at a dose of 10 mg/kg. Schizandrin was dissolved in 10%ethanoland triply deionized water and administered by intravenous injection at a dose of 10 mg/kg. The S. chinensis pharmaceutical product was dissolved in triply deionized water and administered by gastric gavage at a dose of 3 g/kg and 10 g/kg (equivalent to 5.2 mg/kg and 17.3 mg/kg schizandrin).The gavage administration of S. chinensis volume was 3 mL. A 200 μL blood sample was withdrawn from the right jugular vein […] into a heparin-rinsed vial at 5, 15, 30, 45, 60, 90, 120, 150, 180, 240, 360 and 480 min. Blood samples were centrifuged at 6000× g for 10 min at 4 °C. The biological samples were stored at −20 °C before analysis.
Each blood sample (50 μL) was mixed with 1 mL of ethyl acetate and vortexed for 5 min. The mixture was centrifuged at 16000× g for 10 min at 4 °C. The supernatant (1 mL) was transferred to an Eppendorf vial and dried at 40 °C in a centrifugation evaporator. The dried sample was reconstituted in 190 μL of methanol and IS solution (methyl yellow, 5 ng/mL in methanol) and filtered through a 0.22 μm filter. Finally, the filtrate (10 μL) was applied to the UPLC-MS/MS system for analysis.
The LC–MS/MS analysis was performed using a Waters Acquity UPLC™ system (Waters Co., Manchester, UK) consisting of binary solvent manager, an automatic liquid chromatographic sampler and a Waters Xevo^TM tandem quadrupole mass spectrometry equipped with an electrospray ionization (ESI) source. The chromatography was performed on a Purospher® STAR RP-18 endcapped (100 mm × 2.1 mm, 2 μm, Merck KGaA, Darmstadt, Germany) analytical column and maintained at 40 °C in a column oven. The mobile phase consisted of 0.1% formic acid-methanol (15:85, v/v), and the flow rate was set at 0.2 mL/min. The injection volume was 10 μL. The positive ion mode with a multiple reaction monitor (MRM) was used for UPLC-MS/MS analysis. The following precursor-to-product ion transitions were used: m/z 433.22→415.19 for schizandrin and m/z 226.26→76.91 for methyl yellow (internal standard, IS).The instrument parameters were optimized as follows: capillary voltage, 3.2 kV; desolvation gas, nitrogen; desolvation temperature, 400 °C; desolvation gas flow rate, 800 L/h; cone voltage, 18 V; collision energy, 12 V and source temperature, 150 °C. MassLynx 4.1 software (Waters Corporation, Milford, MA, USA) was used for data processing.
Pharmacokinetic calculations were performed on each individual set of data using the pharmacokinetic software WinNonlin Standard Edition, version 1.1 (Scientific Consulting Inc., Apex, NC, USA) by noncompartmental methods for intravenous and oral administration. The results were analyzed using Student’s t-test and the SigmaPlot program (version 13). All data are presented as the mean ± standard deviation (SD).

[2] = Stability of schizandrin in rat plasma (method validation); type: in vitro ADME; settings: for Autosampler Stability / Short-Term Stability / Freeze-Thaw Stability / Long-Term Stability: rat plasma, in % (unit assumed); for Autosampler Stability: 10 °C for 24 h in autosampler; for Short-Term Stability: room temperature for 12 h; for Long-Term Stability: −20 °C for 1 month
Protocol: (§1) Three concentrations (low, medium, and high) were evaluated for stability. The schizandrin concentrations of 5, 50, and 500 ng/mL were used in the method validation.
Stability was evaluated under four conditions: […]; […]; long-term stability kept at −80 °C for 1 month; and freeze-thaw stability: three samples were frozen and stored at −20 °C for 24 h and then thawed at room temperature. After repeating this cycle three times, the samples were analyzed by UHPLC-MS/MS.

[3] = Stability of schizandrin stock solution; type: physicochemical; settings: up to 1 month at −20 °C
Protocol: as §1

[4] = male, Sprague-Dawley, iv, schizandrin 10 mg/kg, rat plasma, n = 6
[5] = male, Sprague-Dawley, po, schizandrin 10 mg/kg, rat plasma, n = 6
[6] = schizandrin 10 mg/kg, p.o., rat plasma, n = 6

concentration at 15 min ([1]; male, Sprague-Dawley, intravenous, plasma sample from jugular vein of a rat at 15 min after 10 mg/kg, i.v. (Figure 2C)): 31.8 ng/mL
AUC [1, 4]: 718 ng·h/mL
MRT [1, 4]: 34.8 min
clearance [1, 4]: 240 ± 30 mL/min/kg
half-life [1, 4]: 42.2 ± 14.8 min
clearance ([1]; male, Sprague-Dawley, plasma, schizandrin intravenous group (10 mg/kg), rat): 90 mL/min
AUC [1, 5]: 112 ng·h/mL
Cmax [1, 5]: 60 ± 30 ng/mL
MRT [1, 5]: 113 min
half-life [1, 5]: 74.7 ± 33.6 min
bioavailability ([1]; male, Sprague-Dawley, rat, plasma, oral, 10 mg/kg, schizandrin 10 mg/kg, p.o. vs 10 mg/kg i.v., rat, read-out: F (bioavailability)): ~15.6%
Tmax ([1]; male, Sprague-Dawley, rat, plasma, po, 10 mg/kg, schizandrin 10 mg/kg, p.o., rat plasma, n = 6, read-out: Tmax): ≤ 30 min
clearance (CL) ([1]; schizandrin 10 mg/kg orally, rat): 340 ± 1240 mL/min/kg
CL [1, 6]: 340 ± 1240 mL/min/kg
Tmax [1, 6]: 22.50 ± 12.55 min
degradation in biological samples ([2]; autosampler 24 h at 10 °C, 12 h at room temperature, 1 month at −80 °C, three freeze-thaw cycles): No significant degradation
Autosampler Stability ([2]; 5 ng/mL): −1.78 ± 2.25
Short-Term Stability ([2]; 5 ng/mL): −1.63 ± 8.36
Freeze-Thaw Stability ([2]; 5 ng/mL, three freeze-thaw cycles): −8.04 ± 3.19
Long-Term Stability ([2]; 5 ng/mL): −0.56 ± 0.39
Autosampler Stability ([2]; 50 ng/mL): 3.17 ± 3.19
Short-Term Stability ([2]; 50 ng/mL): 5.70 ± 4.52
Freeze-Thaw Stability ([2]; 50 ng/mL, three freeze-thaw cycles): −5.16 ± 3.83
Long-Term Stability ([2]; 50 ng/mL): −9.02 ± 0.40
Autosampler Stability ([2]; 500 ng/mL): 0.43 ± 0.12
Short-Term Stability ([2]; 500 ng/mL): 0.64 ± 0.08
Freeze-Thaw Stability ([2]; 500 ng/mL, three freeze-thaw cycles): −0.63 ± 0.30
Long-Term Stability ([2]; 500 ng/mL): −6.75 ± 6.39
stability of stock solution [3]: stable
Compound: COc1cc2c(c(OC)c1OC)-c1c(cc(OC)c(OC)c1OC)C[C@](C)(O)[C@@H](C)C2 [schizandrin]
